Source: ChEMBL document CHEMBL5260814, “Design strategies in the prodrugs of HIV-1 protease inhibitors to improve the pharmaceutical properties” (Eur J Med Chem, 2017)
In brackets after ≈: the same amount, converted by molar mass.

Legend:
[1] = Stability of compound in PBS at pH 5.5 assessed as half life; type: physicochemical
[2] = Water solubility of compound; type: physicochemical
[3] = Stability of compound in PBS at pH 7.4 assessed as half life; type: physicochemical
[4] = Stability of compound in PBS at pH 4.9 assessed as half life; type: physicochemical
[5] = Cmax in rat in presence of Ritonavir; type: ADME; details: in vivo, read-out: Cmax
[6] = AUC in rat in presence of Ritonavir; type: ADME; set-up: concentration or dose not given beside the values; details: in vivo, read-out: AUC
[7] = Metabolic stability in rat liver microsome assessed as half life […]; type: ADME; details: liver microsomes
P-glycoprotein = test: Efflux ratio of apparent permeability across basal to apical membrane over apical to basal membrane in human Caco-2 cells in absence of P-glycoprotein; type: ADME, cell-based
[8] = Solubility of compound; type: physicochemical

Row | SMILES | Cmax [5] | AUC [6] | solubility [8] | also measured
1 | Cc1cccc(C)c1OCC(=O)O[C@H](C(=O)N1CSC[C@H]1C(=O)NC(C)(C)C)[C@@H](N)Cc1ccccc1.Cl | – | – | – | half-life [1]: 4.2 min; solubility [2]: 15 mg/mL; half-life [3]: < 1 min; half-life [4]: 23.8 min
2 | Cc1ccccc1OCC(=O)O[C@H](C(=O)N1CSC(C)(C)[C@H]1C(=O)NC(C)(C)C)[C@@H](N)Cc1ccccc1.Cl | – | – | – | half-life [1]: 2.6 min; solubility [2]: 14 mg/mL; half-life [3]: < 1 min; half-life [4]: 20.8 min
3 | Cc1cccc(CN(C)CCOCC(=O)O[C@H](CN(CC(C)C)S(=O)(=O)c2ccc3c(c2)OCO3)[C@H](Cc2ccc(OCc3csc(C)n3)cc2)NC(=O)O[C@H]2CO[C@H]3OCC[C@H]32)n1 | 401 ng/mL | 4020 ng·h/mL | – | –
4 | CC(C)[C@H](N)C(=O)N[C@@H](C(=O)O[C@H](CN1C[C@H]2CCCC[C@H]2C[C@H]1C(=O)NC(C)(C)C)[C@H](Cc1ccccc1)NC(=O)[C@H](CC(N)=O)NC(=O)c1ccc2ccccc2n1)C(C)C | – | – | – | half-life [7]: 178 min; efflux ratio (P-glycoprotein): 1.2
5 | Cc1cccc(C)c1OCC(=O)N[C@@H](Cc1ccccc1)[C@H](O)C(=O)N1CSC[C@H]1C(=O)NC(C)(C)C | – | – | – | solubility [2]: 0.023 mg/mL (≈ 0.0436 mM)
6 | CC(C)(C)NC(=O)[C@@H]1CSCN1C(=O)[C@@H](OC(=O)COc1ccccc1)[C@@H](N)Cc1ccccc1.Cl | – | – | – | half-life [1]: 2.9 min; solubility [2]: 32 mg/mL; half-life [3]: < 1 min; half-life [4]: 21.2 min
7 | CCN(CC)CC(=O)OCC(=O)O[C@H](CN(CC(C)C)S(=O)(=O)c1ccc2c(c1)OCO2)[C@H](Cc1ccc(OCc2csc(C)n2)cc1)NC(=O)O[C@H]1CO[C@H]2OCC[C@H]21 | 318 ng/mL | 3690 ng·h/mL | – | –
8 | Cc1nc(COc2ccc(C[C@H](NC(=O)O[C@H]3CO[C@H]4OCC[C@H]43)[C@@H](CN(CC(C)C)S(=O)(=O)c3ccc4c(c3)OCO4)OC(=O)COCC(=O)Nc3ccn[nH]3)cc2)cs1 | 603 ng/mL | 7040 ng·h/mL | – | –
9 | CC(C)(C)NC(=O)[C@H]1N(C(=O)[C@@H](OC(=O)COc2ccccc2)[C@@H](N)Cc2ccccc2)CSC1(C)C.Cl | – | – | – | half-life [1]: 3.2 min; solubility [2]: 21 mg/mL; half-life [3]: < 1 min; half-life [4]: 24 min
10 | Cc1nc(COc2ccc(C[C@H](NC(=O)O[C@H]3CO[C@H]4OCC[C@H]43)[C@@H](CN(CC(C)C)S(=O)(=O)c3ccc4c(c3)OCO4)OC(=O)COC(=O)[C@@H](N)CCCCN)cc2)cs1 | 517 ng/mL | 4220 ng·h/mL | – | –
11 | CNCC(=O)OCC(=O)O[C@H](CN(CC(C)C)S(=O)(=O)c1ccc2c(c1)OCO2)[C@H](Cc1ccc(OCc2csc(C)n2)cc1)NC(=O)O[C@H]1CO[C@H]2OCC[C@H]21 | 356 ng/mL | 5600 ng·h/mL | – | –
12 | Cc1nc(COc2ccc(C[C@H](NC(=O)O[C@H]3CO[C@H]4OCC[C@H]43)[C@@H](CN(CC(C)C)S(=O)(=O)c3ccc4c(c3)OCO4)OC(=O)COCCn3ccnc3)cc2)cs1 | 322 ng/mL | > 5000 ng·h/mL | – | –
13 | CC(C)[C@@H](N)C(=O)N[C@@H](C(=O)O[C@H](CN1C[C@H]2CCCC[C@H]2C[C@H]1C(=O)NC(C)(C)C)[C@H](Cc1ccccc1)NC(=O)[C@H](CC(N)=O)NC(=O)c1ccc2ccccc2n1)C(C)C | – | – | – | half-life [7]: 296 min
14 | Cc1nc(COc2ccc(C[C@H](NC(=O)O[C@H]3CO[C@H]4OCC[C@H]43)[C@@H](CN(CC(C)C)S(=O)(=O)c3ccc4c(c3)OCO4)OC(=O)COC(=O)[C@@H](N)CC(C)C)cc2)cs1 | 776 ng/mL | 3960 ng·h/mL | – | –
15 | COCCN(C)CC(=O)OCC(=O)O[C@H](CN(CC(C)C)S(=O)(=O)c1ccc2c(c1)OCO2)[C@H](Cc1ccc(OCc2csc(C)n2)cc1)NC(=O)O[C@H]1CO[C@H]2OCC[C@H]21 | 407 ng/mL | 4710 ng·h/mL | – | –

Further lines, with some results ahead:

Row | Cmax [5] | AUC [6] | solubility [8] | SMILES | also measured
16 | – | – | 53.2 mg/mL (≈ 69.3 mM) | Cc1cccc(C)c1OCC(=O)N[C@@H](Cc1ccccc1)[C@H](OC(=O)CCC(=O)NCCN1CCOCC1)C(=O)N1CSC(C)(C)[C@H]1C(=O)NC(C)(C)C | –
17 | – | – | 57.1 mg/mL (≈ 73 mM) | Cc1cccc(C)c1OCC(=O)N[C@@H](Cc1ccccc1)[C@H](OC(=O)CCCC(=O)NCCN1CCOCC1)C(=O)N1CSC(C)(C)[C@H]1C(=O)NC(C)(C)C | –
18 | – | – | 31.9 mg/mL (≈ 42.8 mM) | Cc1cccc(C)c1OCC(=O)N[C@@H](Cc1ccccc1)[C@H](OC(=O)CCC(=O)NCc1ccccn1)C(=O)N1CSC(C)(C)[C@H]1C(=O)NC(C)(C)C | –
19 | – | – | 47.8 mg/mL (≈ 62.4 mM) | Cc1cccc(C)c1OCC(=O)N[C@@H](Cc1ccccc1)[C@H](OC(=O)CCC(=O)NCCN1CCCCC1)C(=O)N1CSC(C)(C)[C@H]1C(=O)NC(C)(C)C | –
20 | – | – | 77.1 mg/mL (≈ 110 mM) | Cc1cccc(C)c1OCC(=O)N[C@@H](Cc1ccccc1)[C@H](OC(=O)CCC(=O)NCCN)C(=O)N1CSC(C)(C)[C@H]1C(=O)NC(C)(C)C | –
21 | – | – | 91.5 mg/mL (≈ 123 mM) | Cc1cccc(C)c1OCC(=O)N[C@@H](Cc1ccccc1)[C@H](OC(=O)CCC(=O)NCc1ccncc1)C(=O)N1CSC(C)(C)[C@H]1C(=O)NC(C)(C)C | –
22 | – | – | 50.3 mg/mL (≈ 70.7 mM) | Cc1cccc(C)c1OCC(=O)N[C@@H](Cc1ccccc1)[C@H](OC(=O)CCCC(=O)NCCN)C(=O)N1CSC(C)(C)[C@H]1C(=O)NC(C)(C)C | –
